Several values for one entry are separate records, joined by “and”; a condition that tells them apart may be missing. Equal entries are not always repeated. Entries after “also recorded” stand apart in the source; their conditions may differ.
Experiments:
[1] = system: Raji cells; experiment: Sensitization of Raji cells to temozolomide (XTT assay); assay type: cell-based, human
Description: Following a 2 hour incubation at 37° C., medium containing either increasing doses of BCNU, temozolomide or equivalent vehicle was added and the cells allowed to grow for 6 days. At this time XTT solution was added and the cells incubated for a further 4 hours at 37° C. The resulting red/orange formazan reaction product was quantified by measuring absorption at 450 nm on a microtitre platereader.

[2] = target: T1, ATase in human melanoma xenografts (Homo sapiens, UniProt P16455); experiment: ATase activity in human melanoma (A375) xenografts grown in nude mice after inactivator; assay type: in vivo; conditions: with temozolomide 50 mg/kg i.p., three consecutive days, 24 hours after final dose (FIG. 19)
T1 construct: A375M cells are human melanoma cells from which the xenografts described below were established; endogenous in cells; host or cells: A375M xenograft grown in nude mice
T1 sequence (P16455 1-207): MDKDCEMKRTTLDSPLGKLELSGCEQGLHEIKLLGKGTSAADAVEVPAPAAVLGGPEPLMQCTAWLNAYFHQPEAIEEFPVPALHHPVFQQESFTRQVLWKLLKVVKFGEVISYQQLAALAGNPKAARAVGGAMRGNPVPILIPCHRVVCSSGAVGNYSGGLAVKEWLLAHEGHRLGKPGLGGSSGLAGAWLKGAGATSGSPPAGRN

[3] = target: T2, recombinant human ATase (Homo sapiens, UniProt P16455); experiment: In vitro ATase inactivation assay (incubation with inactivators and ATase assay); assay type: biochemical; conditions: for ATase inactivation in vitro, result in words: recombinant human ATase, standard conditions
T2 construct: made in house
T2 sequence (P16455 1-207): T1 sequence (P16455 1-207)
Description: The cDNA cloning and overexpression of the human ATase has been reported previously^23. Purification of the recombinant proteins was achieved either by affinity chromatography through a DNA-cellulose column as described by Wilkinson et al.,^25, 26 or by DEAE-cellulose ion-exchange chromatography. For the latter, the ATase protein was partially purified by ammonium sulphate precipitation (30-60%) and dialysed against 10 mM Tris-HCl pH 7.5, 1 mM DTT, 2 mM EDTA, 10% glycerol, before loading on a DEAE-cellulose column. The ATase was then eluted with a 0-0.1 M NaCl gradient.
Compounds to be tested were dissolved in DMSO to a final concentration of 10 mM and diluted just before use in buffer I containing 1 mg/ml bovine serum albumin (IBSA). Recombinant ATase was diluted in IBSA and titrated in order that the reaction be conducted under ATase, and not substrate, limiting conditions. […] Following acid hydrolysis of the DNA as previously described^21 the [^3 H]-methylated protein was recovered and quantitated by liquid scintillation counting. Samples were typically assayed in duplicate and experiments repeated several times. I50 is the concentration of inactivator required to produce a 50% reduction in ATase activity.

[4] = target: T3, ATase (Mus musculus, UniProt P26187); experiment: ATase activity in tissues of nude mice after inactivator; assay type: in vivo; conditions: for inactivation of ATase in mouse tissues, in words: single dose (FIG. 18, Table 10)
T3 construct: Effect of B.4280 on ATase activity in several tissues of nude mice; from tissue; host or cells: liver, lung, kidney, spleen, brain, testis and bone marrow of nu/nu mice
T3 sequence (P26187 1-211): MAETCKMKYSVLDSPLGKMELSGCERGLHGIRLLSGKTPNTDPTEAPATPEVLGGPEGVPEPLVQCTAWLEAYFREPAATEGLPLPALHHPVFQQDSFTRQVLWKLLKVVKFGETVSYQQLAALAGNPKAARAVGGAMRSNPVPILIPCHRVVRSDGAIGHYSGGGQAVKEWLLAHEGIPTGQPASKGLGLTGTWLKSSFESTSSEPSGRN
Description: ATase substrate DNA was prepared by incubation of purified calf thymes DNA with N-[^3 H]-methyl-N-nitrosuourea (18.7 Ci/mmole, Amersham International). Cell or tissue extracts (see 4.4) were incubated with [^3 H]-methylated-DNA substrate (100 μl containing 6.7 μg of DNA and 100 fmol of O^6 -[^3 H]methylguanine) at 37° C. for 60 mins. Following acid hydrolysis of the DNA as precviously described^21the [^3 H]-methylated protein was recovered and quantitated by liquid scintillation counting. […]
The mice in the tests shown in FIGS. 17 and 18 were BALB-C derived athymic male mice (nu/nu athymic) from the in-house breeding colony at the Paterson Institute for Cancer Research as described above (Animal Services Unit-ASU Mice).
Animals were given a single dose of B.4280 (10 mg/kg i.p.) and sacrificed

[5] = target: T1, ATase in human melanoma xenografts; experiment: ATase activity in human melanoma (A375) xenografts grown in nude mice after inactivator; assay type: in vivo; conditions: for inactivation of ATase in human melanoma xenografts, in words: single i.p. dose 30 or 60 mg/kg (FIG. 17); for ATase mean activity (fm/mg): Tumour
Description: Cells (10^6) in 100 μl of PBS were injected subcutaneously into the right-hand flank of 8-10 week old nu/nu athymic mice. These cells were allowed to develop into a tumour for 3-4 weeks for passaging into experimental animals. Tumour blocks measuring 2 mm×2 mm×2 mm were implanted subcutaneously on the right hand flank. These animals were ready for use in inactivator experiments in 7-10 days.
ATase substrate DNA was prepared by incubation of purified calf thymes DNA with N-[^3 H]-methyl-N-nitrosuourea (18.7 Ci/mmole, Amersham International). Cell or tissue extracts (see 4.4) were incubated with [^3 H]-methylated-DNA substrate (100 μl containing 6.7 μg of DNA and 100 fmol of O^6 -[^3 H]methylguanine) at 37° C. for 60 mins. Following acid hydrolysis of the DNA as precviously described^21the [^3 H]-methylated protein was recovered and quantitated by liquid scintillation counting.
(§1) Mice were treated with the inactivator as a suspension in corn oil by intraperitoneal injection (i.p.) or by oral gavage (p.o.) 60 mins prior to temozolomide (100 mg/kg in 20% DMSO in phosphate-buffered saline) which was always given by intraperitoneal injection: this schedule was repeated on days 1 to 5 inclusive. Controls received vehicle alone, inactivator alone or temozolomide alone.

[6] = system: human melanoma xenografts; experiment: Sensitization of human melanoma xenografts to temozolomide; assay type: in vivo, nude mice; conditions: for sensitizing human melanoma xenografts to growth inhibitory effects of temozolomide, in words: inactivator i.p. 1 hour before temozolomide 100 mg/kg i.p., five consecutive days (FIGS. 21A, 22A)
Description: Xenograft tumour measurements were taken every 1-2 days by workers using digital calipers. Tumour volume was calculated using the formula (h×w×l)π/6. The experimental animals were also weighed every 1-2 days. Measurements continued until tumours in the control animals reached the maximum allowable volume (i.e. 1 cm×1 cm×1 cm).
as §1
The mice in the tests shown in FIGS. 19-24 were Swiss mouse derived athymic male mice ([…]) from ZENECA Pharmaceuticals, Mereside, Alderley Park, Macclesfield, Cheshire SK10 4T6, England.

Nc1nc(OCc2cccs2)c2nc[nH]c2n1 [B.4205, 0^6 -thenylguanine]
sensitising Raji cells to growth inhibitory effects of temozolomide, in words ([1]; 0.1 μM inactivator (FIG. 3)): more effective than BeG
dose response of Raji sensitization to temozolomide, in words ([1]; 0.1-5.0 μM inactivator (FIGS. 3, 4)): lack of dose response
ATase inactivation in tumour xenografts, in words [2]: more effective in ATase inactivation in tumour xenografts than either agent alone and 10 mg/kg being ag ettentive as 60 mg/kg
ATase inactivation in vitro, result in words [3]: considerably better; also recorded: I50 values lower than that of BeG
inactivation of ATase in mouse tissues, in words [4]: able to inactivate ATase in most mouse tissues examined but there was less inactivation in brain than other tissues
inactivating ATase in human melanoma xenografts, in words ([5]; 30 mg/kg (FIG. 8)): as effetive as BeG
inactivation of ATase in human melanoma xenografts, in words [5]: inactivated
sensitizing human melanoma xenografts to growth inhibitory effects of temozolomide, in words [6]: effective in sensitizing

Nc1nc(OCc2cc(Br)cs2)c2nc[nH]c2n1 [B.4280, O^6-(4-bromothenyl)guanine]
sensitization of Raji cells to temozolomide, in words ([1]; 0.5 μM inactivator, 2 hours before temozolomide (FIG. 16)): much more effective than either B.4205 or BeG
ATase inactivation in tumour xenografts, in words [2]: more effective in ATase inactivation in tumour xenografts than either agent alone; also recorded: more effective than B.4205 at equivalent doses
IC50 [3]: 3.4 nM
ATase inactivation in vitro, result in words [3]: more efficient in inactivating ATase in vitro than its 5-bromo analogue B.4269; also recorded: more efficient than the unsubstituted thenyl derivative B.4205
ATase mean activity (fm/mg) ([4]; Bone Marrow (pooled), 24 h after 10 mg/kg i.p.): 42 fm/mg
ATase mean activity (fm/mg) ([4]; Bone Marrow (pooled), 48 h after 10 mg/kg i.p.): 61 fm/mg
ATase mean activity (fm/mg) ([4]; Brain, 24 h after 10 mg/kg i.p.): 13.7 ± 2.05 fm/mg
ATase mean activity (fm/mg) ([4]; Brain, 48 h after 10 mg/kg i.p.): 16.3 ± 1.25 fm/mg
ATase mean activity (fm/mg) ([4]; Kidney, 24 h after 10 mg/kg i.p.): 24.3 ± 4.03 fm/mg
ATase mean activity (fm/mg) ([4]; Kidney, 48 h after 10 mg/kg i.p.): 28.7 ± 4.11 fm/mg
ATase mean activity (fm/mg) ([4]; Liver, 24 h after 10 mg/kg i.p.): 89.7 ± 10.14 fm/mg
ATase mean activity (fm/mg) ([4]; Liver, 48 h after 10 mg/kg i.p.): 100.7 ± 8.73 fm/mg
ATase mean activity (fm/mg) ([4]; Lung, 24 h after 10 mg/kg i.p.): 15.3 ± 2.05 fm/mg
ATase mean activity (fm/mg) ([4]; Lung, 48 h after 10 mg/kg i.p.): 24 ± 2.83 fm/mg
ATase mean activity (fm/mg) ([4]; Spleen, 24 h after 10 mg/kg i.p.): 41 ± 5.35 fm/mg
ATase mean activity (fm/mg) ([4]; Spleen, 48 h after 10 mg/kg i.p.): 68.3 ± 9.53 fm/mg
ATase mean activity (fm/mg) ([4]; Testis, 24 h after 10 mg/kg i.p.): 45 ± 7.48 fm/mg
ATase mean activity (fm/mg) ([4]; Testis, 48 h after 10 mg/kg i.p.): 44 ± 1.41 fm/mg
inactivation of ATase in mouse tissues, in words [4]: able to inactivate ATase in most tissues
recovery of tumour ATase activity, in words ([5]; 10 mg/kg i.p. (Table 10)): very low at 24 hours but had recovered completely by 48 hours
ATase mean activity (fm/mg) ([5]; 24 h after 10 mg/kg i.p.): 36 ± 7.79 fm/mg
ATase mean activity (fm/mg) ([5]; 48 h after 10 mg/kg i.p.): 140 ± 43.87 fm/mg
inactivation of ATase in human melanoma xenografts, in words [5]: inactivated; also recorded: the most effective in vivo inactivator at the doses examined
oral versus i.p. administration in sensitizing xenografts to temozolomide, in words ([6]; 30 mg/kg p.o. vs 20 mg/kg i.p. (FIG. 24A)): almost as effective as i.p. administration
sensitizing human melanoma xenografts to growth inhibitory effects of temozolomide, in words [6]: effective in sensitizing; also recorded: about twice as effective as B.4205

Reference: patent US6043228A, “O^6 -substituted guanine derivatives, a process for their preparation and their use in treating tumor cells” (Cancer Research Campaign Technology Limited, priority 1993, dated 2000)
